Data published in ChEMBL document CHEMBL1134849, “Substituted acrylamides as factor Xa inhibitors: improving bioavailability by P1 modification” (Bioorg Med Chem Lett, 2002).

Columns and labels:
[1] = target: T1, Coagulation factor X (Homo sapiens, UniProt P00742); assay: Concentration required for inhibition of Coagulation factor X
[2] = Volume distribution in rats; type: ADME, organism-based; conditions: rat, in vivo; read-out: Vz
[3] = Half life in rats in hours; type: ADME, organism-based; conditions: rat, in vivo
[4] = Oral bioavailability in rat; type: ADME, organism-based; conditions: in vivo
[5] = Plasma clearance in rats; type: ADME, organism-based; conditions: rat
[6] = target: Prothrombin (Homo sapiens, UniProt P00734); assay: Concentration required for inhibition of Coagulation factor II
[7] = species: Oryctolagus cuniculus; assay: Antithrombotic activity was evaluated by using rabbit PT assay; type: functional
[8] = target: Serine protease 1 (Homo sapiens, UniProt P07477); assay: Concentration required for inhibition of trypsin
Sequence of Serine protease 1 (P07477 whole entry): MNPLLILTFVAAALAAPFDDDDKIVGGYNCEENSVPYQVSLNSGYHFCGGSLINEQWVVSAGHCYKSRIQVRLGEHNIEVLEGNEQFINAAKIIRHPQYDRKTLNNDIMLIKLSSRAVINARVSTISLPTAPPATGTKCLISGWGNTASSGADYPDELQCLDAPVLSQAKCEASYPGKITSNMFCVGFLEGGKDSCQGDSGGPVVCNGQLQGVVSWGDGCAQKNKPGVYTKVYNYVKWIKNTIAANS

[9] = target: T1, Coagulation factor X; assay: Binding affinity towards Coagulation factor X
[10] = Plasma clearance in dogs; type: ADME, organism-based, Canis lupus familiaris; conditions: dog
[11] = Volume distribution in dogs; type: ADME, organism-based, Canis lupus familiaris; conditions: dog, in vivo; read-out: Vz
[12] = Half life in dogs in hours; type: ADME, organism-based, Canis lupus familiaris; conditions: dog, in vivo
[13] = Oral bioavailability in dog; type: ADME, organism-based, Canis lupus familiaris; conditions: in vivo
[14] = Oral bioavailability in ratrs; type: ADME, organism-based; conditions: rat, in vivo

T1 sequence (P00742 41-179 limits assumed): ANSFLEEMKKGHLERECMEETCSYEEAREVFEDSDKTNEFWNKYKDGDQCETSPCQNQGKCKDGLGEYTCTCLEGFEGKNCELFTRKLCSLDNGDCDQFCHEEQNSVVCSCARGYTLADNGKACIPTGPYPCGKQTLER
T1 sequence (P00742 235-488 limits assumed): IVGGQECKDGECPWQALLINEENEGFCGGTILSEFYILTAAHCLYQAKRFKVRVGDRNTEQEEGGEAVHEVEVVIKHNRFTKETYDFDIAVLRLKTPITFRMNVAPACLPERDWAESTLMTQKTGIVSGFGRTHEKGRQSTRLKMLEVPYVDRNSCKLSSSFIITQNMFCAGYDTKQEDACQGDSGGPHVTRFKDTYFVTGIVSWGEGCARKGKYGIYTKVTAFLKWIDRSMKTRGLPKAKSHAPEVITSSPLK

`C/C(=C(\F)C(=O)Nc1ccc(-c2ccncc2[S+](C)[O-])cc1F)c1ccc2ccnc(N)c2c1` (configuration not stated) gave an IC50 [1] of 1500 nM.

`Nc1nccc2ccc(/C=C\C(=O)Nc3ccc(-c4ccccc4S(N)(=O)=O)cc3)cc12` gave a Vd [2] of 7.4 L/kg, a half-life [3] of 1.51 h and a bioavailability [4] of 1.5%. For the same compound, the IC50 [1] was 78 nM and the clearance [5] was 56.4 mL/min/kg.

`C/C(=C(\F)C(=O)Nc1ccc(-c2ccccc2S(N)(=O)=O)cc1F)c1ccc2ccnc(N)c2c1` gave a Vd [2] of 3.7 L/kg, an IC50 [6] of 6300 nM and an Activity [7] of 6.3 µM. The IC50 [8] was 9700 nM, the half-life [3] was 1.7 h and the bioavailability [4] was 13.5%. The IC50 [1] was 5 nM, the clearance [5] was 25.3 mL/min/kg and the Ki [9] was 1.6 nM.

For `C/C(=C(\F)C(=O)Nc1ccc(-c2ccccc2S(N)(=O)=O)cc1Br)c1cc(Br)ccc1N`, the IC50 [1] was greater than 11000 nM.

With `C/C(=C(\F)C(=O)Nc1ccc(-c2ccccc2S(N)(=O)=O)cc1)c1ccc2ccnc(N)c2c1` the Vd [2] was 10 L/kg, the half-life [3] was 2.38 h and the clearance [10] was 11.4 mL/min/kg. It also gave a bioavailability [4] of 6.8%, a Vd [11] of 6.8 L/kg and an IC50 [1] of 14 nM. For the same compound, the half-life [12] was 7.1 h, the clearance [5] was 48.7 mL/min/kg and the bioavailability [13] was 36.7%.

Compound `C/C(=C(\F)C(=O)Nc1ccc(-c2ccccc2S(N)(=O)=O)cc1)c1cc(Cl)ccc1C#N` has an IC50 [1] of 9500 nM.

In the case of `C/C(=C(\F)C(=O)Nc1ccc(-c2ccncc2S(C)(=O)=O)cc1)c1ccc2ccnc(N)c2c1`, the IC50 [1] is reported as 7 nM.

In the case of `C/C(=C(\F)C(=O)Nc1ccc(-c2ccccc2S(N)(=O)=O)cc1)c1cccc(N)c1`, the IC50 [1] is reported as greater than 11000 nM.

In the case of `COc1ccc(/C(C)=C(/F)C(=O)Nc2ccc(-c3ccccc3S(N)(=O)=O)cc2)c(C#N)c1`, the IC50 [1] is reported as 5700 nM.

Compound `C/C(=C(\F)C(=O)Nc1ccc(-c2ccccc2S(N)(=O)=O)cc1)c1cccc(C(N)=O)c1` has an IC50 [1] of 920 nM.

In the case of `C/C(=C(\F)C(=O)Nc1ccc(-c2ccccc2C#N)cc1)c1ccc2ccnc(N)c2c1`, the IC50 [1] is reported as 190 nM.

Compound `C/C(=C(\F)C(=O)Nc1ccc(-c2ccccc2S(N)(=O)=O)cc1Br)c1cc(Br)ccc1[N+](=O)[O-]` has an IC50 [1] of 2900 nM.

For `C/C(=C(\F)C(=O)Nc1ccc(-c2ccccc2S(N)(=O)=O)cc1Br)c1ccc2ccnc(N)c2c1`, the Vd [2] was 0.61 L/kg, the IC50 [6] was 4800 nM and the Activity [7] was 10.3 µM. The IC50 [8] was 2400 nM, the half-life [3] was 1.6 h and the clearance [10] was 10.8 mL/min/kg. For the same compound, the bioavailability [4] was 30.1%, the Vd [11] was 5.5 L/kg and the IC50 [1] was 7 nM. The half-life [12] was 6 h, the clearance [5] was 4.4 mL/min/kg and the Ki [9] was 1.3 nM. It also gave a bioavailability [13] of 33.1%.

In the case of `C/C(=C(/F)C(=O)Nc1ccc(-c2ccccc2S(N)(=O)=O)cc1)c1ccc2nc(N)nc(N)c2c1`, the IC50 [1] is reported as greater than 11000 nM.

`C/C(=C(\F)C(=O)Nc1ccc(-c2ccccc2S(N)(=O)=O)cc1F)c1cccc(C(=N)S)c1` showed an IC50 [1] of 140 nM.

With `C/C(=C(\F)C(=O)Nc1ccc(-c2ccccc2S(N)(=O)=O)cc1)c1cc(N)ccc1[N+](=O)[O-]` the IC50 [1] was 250 nM.

`C/C(=C(\F)C(=O)Nc1ccc(-c2ccccc2S(N)(=O)=O)cc1Cl)c1ccc2ccnc(N)c2c1` showed a Vd [2] of 0.8 L/kg, an IC50 [6] of 5400 nM and an Activity [7] of 9.4 µM. The IC50 [8] was greater than 11000 nM, the half-life [3] was 1.43 h and the IC50 [1] was 11 nM. For the same compound, the bioavailability [14] was 35.1%, the clearance [5] was 6.7 mL/min/kg and the Ki [9] was 1.1 nM.

Compound `C/C(=C(/F)C(=O)Nc1ccc(-c2ccccc2S(N)(=O)=O)cc1)c1ccc2ncnc(N)c2c1` has an IC50 [1] of 270 nM.

`C/C(=C(\F)C(=O)Nc1ccc(-c2ccnc(C(N)=O)c2)cc1)c1ccc2ccnc(N)c2c1` showed an IC50 [1] of 180 nM.

In the case of `C/C(=C(\F)C(=O)Nc1ccc(-c2ccccc2S(N)(=O)=O)cc1)c1cccc(NN)c1`, the IC50 [1] is reported as greater than 11000 nM.

Work on `C/C(Cc1ccc(Br)cc1)=C(\F)C(=O)Nc1ccc(-c2ccccc2S(N)(=O)=O)cc1` yielded an IC50 [1] of 1800 nM.

In the case of `C/C(=C(/F)C(=O)Nc1ccc(-c2ccccc2S(N)(=O)=O)cc1)c1ccc2ccnc(N)c2c1`, the IC50 [1] is reported as 880 nM.

`C/C(=C(\F)C(=O)Nc1ccc(-c2ccccc2S(N)(=O)=O)cn1)c1ccc2ccnc(N)c2c1` gave a Vd [2] of 2.7 L/kg, a half-life [3] of 1.64 h and a bioavailability [4] of 13%. The IC50 [1] was 14 nM and the clearance [5] was 19.1 mL/min/kg.
